Article PMC12369479 (Journal of Experimental Botany, 2025)
Where two headings read alike, the source gives them in different places.

Experiments:
PpADK2 = PpADK2 (Physcomitrium patens, UniProt A9RF27); experiment: ADK activity, coupled reaction with PK and LDH; conditions: 10 mM ATP, pH 7.5, 30 °C; for Specific activity: 100 µM substrate
Method: (§1) Substrate analogs were purchased from Sigma-Aldrich (www.sigmaaldrich.com). The ADK activity was measured spectrophotometrically on an Agilent 8453 UV-Vis spectrophotometer (www.agilent.com) at 30 °C using a coupled reaction with pyruvate kinase (PK) and lactate dehydrogenase (LDH) (www.sigmaaldrich.com) ([Blondin et al., 1994]). In this assay, PK converts ADP produced by ADK and phosphoenolpyruvate (PEP) to pyruvate. Subsequently, LDH then converts pyruvate to lactate using the coenzyme NADH, with the conversion monitored at 340 nm. The reaction was conducted in 50 mM Tris–HCl buffer at pH 7.5, containing 50 mM KCl, 6 mM MgCl2, 300 µM PEP, 200 µM NADH, 10 mM ATP, 2 U of PK, and 2.5 U of LDH, using various nucleoside substrates. Kinetic constants were determined using GraphPad Prism 8.0 software (www.graphpad.com). Each measurement was performed six times using repetitive purified enzymes. The activities of all five ADKs were also measured by HPLC ([Moffatt et al., 1991]). The reaction mixture comprised 50 mM Tris–HCl pH 7.5, 5 mM MgCl2, 0.5 mM DTT, 30 mM NaF, 5 mM ATP, 40 µM substrate, and 2–150 ng of purified ADK, depending on the isoform. The reaction was incubated at 30 °C for up to 1 h. […] Similarly, the conversion of cytokinin ribosides to monophosphates was followed on a LiChrosphere 60 RP-Select B (5 µm) LiChroCART column 125-4 column equilibrated with 10 mM triethylamine at pH 5.4 plus 10% methanol, and stepwise eluted with 100% methanol.

ZmADK1 = ZmADK1 (Zea mays, UniProt K7UH13); experiment: ADK activity, coupled reaction with PK and LDH; conditions: 10 mM ATP, pH 7.5, 30 °C; for Specific activity: 100 µM substrate
Chain of ZmADK1 (K7UH13 entry or part of it): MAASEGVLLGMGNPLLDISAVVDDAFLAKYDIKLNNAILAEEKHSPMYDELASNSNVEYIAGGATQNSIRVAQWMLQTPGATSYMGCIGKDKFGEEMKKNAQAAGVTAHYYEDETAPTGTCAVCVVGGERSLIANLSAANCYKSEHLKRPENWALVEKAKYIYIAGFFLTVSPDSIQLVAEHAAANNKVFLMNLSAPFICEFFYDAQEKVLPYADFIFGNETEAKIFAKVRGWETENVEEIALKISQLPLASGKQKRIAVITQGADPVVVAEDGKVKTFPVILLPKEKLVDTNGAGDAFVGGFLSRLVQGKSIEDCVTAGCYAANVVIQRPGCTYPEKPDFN
Method: as §1

ZmADK2 [1] = biological target: T1, ZmADK2 (Zea mays, UniProt B4FFH8, T4S); experiment: ADK activity, coupled reaction with PK and LDH; assay type: biochemical; conditions: pH 7.5
T1 sequence (B4FFH8 1-342 T4S): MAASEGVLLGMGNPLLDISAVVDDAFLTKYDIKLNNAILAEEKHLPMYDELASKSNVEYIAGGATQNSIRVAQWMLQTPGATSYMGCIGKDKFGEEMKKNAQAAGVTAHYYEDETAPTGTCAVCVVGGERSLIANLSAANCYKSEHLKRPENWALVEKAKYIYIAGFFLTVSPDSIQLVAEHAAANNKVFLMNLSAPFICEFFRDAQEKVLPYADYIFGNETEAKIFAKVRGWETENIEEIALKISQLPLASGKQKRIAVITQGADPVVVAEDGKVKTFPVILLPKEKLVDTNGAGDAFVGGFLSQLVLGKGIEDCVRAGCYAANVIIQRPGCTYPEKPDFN
Method: as §1

ZmADK3 = ZmADK3 (Zea mays, UniProt A0A1D6E5Z5); experiment: ADK activity, coupled reaction with PK and LDH; assay type: biochemical; conditions: ZmADK3, 10 mM ATP, pH 7.5, 30 °C; for Specific activity: 100 µM substrate
Chain of ZmADK3 (A0A1D6E5Z5 entry or part of it): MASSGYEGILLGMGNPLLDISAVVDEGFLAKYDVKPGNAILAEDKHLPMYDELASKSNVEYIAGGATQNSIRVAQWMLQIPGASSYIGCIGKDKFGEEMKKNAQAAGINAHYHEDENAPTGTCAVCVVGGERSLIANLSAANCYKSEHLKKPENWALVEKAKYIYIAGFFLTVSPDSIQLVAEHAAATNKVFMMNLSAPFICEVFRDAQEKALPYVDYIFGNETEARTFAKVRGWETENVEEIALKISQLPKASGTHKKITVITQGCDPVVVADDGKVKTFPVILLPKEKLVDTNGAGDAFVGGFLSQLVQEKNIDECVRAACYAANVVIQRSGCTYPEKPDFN
Method: Substrate analogs were purchased from Sigma-Aldrich (www.sigmaaldrich.com). […] In this assay, PK converts ADP produced by ADK and phosphoenolpyruvate (PEP) to pyruvate. Subsequently, LDH then converts pyruvate to lactate using the coenzyme NADH, with the conversion monitored at 340 nm. The reaction was conducted in 50 mM Tris–HCl buffer at pH 7.5, containing 50 mM KCl, 6 mM MgCl2, 300 µM PEP, 200 µM NADH, 10 mM ATP, 2 U of PK, and 2.5 U of LDH, using various nucleoside substrates. Kinetic constants were determined using GraphPad Prism 8.0 software (www.graphpad.com). Each measurement was performed six times using repetitive purified enzymes. […] The reaction mixture comprised 50 mM Tris–HCl pH 7.5, 5 mM MgCl2, 0.5 mM DTT, 30 mM NaF, 5 mM ATP, 40 µM substrate, and 2–150 ng of purified ADK, depending on the isoform. The reaction was incubated at 30 °C for up to 1 h.

PpADK1 [2] = biological target: T2, PpADK1 (Physcomitrium patens, UniProt O49923); experiment: ADK activity, coupled reaction with PK and LDH; assay type: biochemical, Physcomitrella patens; conditions: 100 µM substrate, 10 mM ATP, pH 7.5, 30 °C
T2 construct: made in house; host or cells: E. coli T7 Express Iq
T2 sequence (O49923 whole entry): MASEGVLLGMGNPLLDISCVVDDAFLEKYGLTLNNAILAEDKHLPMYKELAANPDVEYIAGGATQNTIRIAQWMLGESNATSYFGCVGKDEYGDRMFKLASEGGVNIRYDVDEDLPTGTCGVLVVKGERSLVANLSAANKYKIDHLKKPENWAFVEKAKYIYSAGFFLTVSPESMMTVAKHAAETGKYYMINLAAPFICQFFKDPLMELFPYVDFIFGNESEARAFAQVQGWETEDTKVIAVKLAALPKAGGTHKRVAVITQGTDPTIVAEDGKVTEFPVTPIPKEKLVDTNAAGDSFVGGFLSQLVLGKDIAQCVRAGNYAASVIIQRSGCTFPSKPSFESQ
Method: as §1

ZmADK2 [3] = biological target: T1, ZmADK2; experiment: Binding affinity by microscale thermophoresis (MST); conditions: for Kd: MST, 50 mM HEPES pH 7.5, 1 mM MgCl2, first or only binding event
Method: (§2) The microscale thermophoresis (MST) method was used to determine the binding affinity of various ribosides for ZmADK2 and PpADK1. Proteins were fluorescently labeled with RED-tris-NTA dye (www.nanotemper-technologies.com) using a 1:1 dye/protein molar ratio. The labeled protein was adjusted to 100–300 nM in 50 mM HEPES buffer pH 7.5, 1 mM MgCl2, and 0.2% Tween. Measurements were performed in premium capillaries on a Monolith NT.115 instrument at 30 °C with 5 s/30 s/5 s laser off/on/off times, respectively, with continuous sample fluorescence recording. Thermal stability was measured by nano-differential scanning fluorimetry on a Prometheus NT.48 instrument (www.nanotemper-technologies.com) in various buffers covering a pH (7.0–9.5) and temperature range (25–95 °C), with a heating rate of 1 °C min^–1, and using NT melting control software. Protein unfolding was measured by detecting the temperature-induced change in tryptophan fluorescence intensity at emission wavelengths of 330±5 nm and 350±5 nm. The melting temperature (Tm) was deduced from the maximum of the first derivative of the fluorescence ratios F350/F330.

PpADK1 [4] = biological target: T2, PpADK1; experiment: as above; design: species or system Physcomitrella patens; conditions: KD, 50 mM HEPES pH 7.5, 1 mM MgCl2, first or only binding event
Method: as §2

all five ADKs = experiment: ADK kinetics, coupled reaction (summary for all isoforms); assay type: biochemical, Zea mays, Physcomitrella patens; conditions: range over all five ADKs
Method: Substrate analogs were purchased from Sigma-Aldrich (www.sigmaaldrich.com). The ADK activity was measured spectrophotometrically on an Agilent 8453 UV-Vis spectrophotometer (www.agilent.com) at 30 °C using a coupled reaction with pyruvate kinase (PK) and lactate dehydrogenase (LDH) (www.sigmaaldrich.com) ([Blondin et al., 1994]). In this assay, PK converts ADP produced by ADK and phosphoenolpyruvate (PEP) to pyruvate. Subsequently, LDH then converts pyruvate to lactate using the coenzyme NADH, with the conversion monitored at 340 nm. The reaction was conducted in 50 mM Tris–HCl buffer at pH 7.5, containing 50 mM KCl, 6 mM MgCl2, 300 µM PEP, 200 µM NADH, 10 mM ATP, 2 U of PK, and 2.5 U of LDH, using various nucleoside substrates. Kinetic constants were determined using GraphPad Prism 8.0 software (www.graphpad.com). Each measurement was performed six times using repetitive purified enzymes. The activities of all five ADKs were also measured by HPLC ([Moffatt et al., 1991]). The reaction mixture comprised 50 mM Tris–HCl pH 7.5, 5 mM MgCl2, 0.5 mM DTT, 30 mM NaF, 5 mM ATP, 40 µM substrate, and 2–150 ng of purified ADK, depending on the isoform. The reaction was incubated at 30 °C for up to 1 h. […]

rabbit ADK = tested on: rabbit ADK; design: method as in Miller et al., 1979a; conditions: ref Miller et al., 1979a; cited from earlier work
[5] = ZmADK2, 100 µM substrate, 10 mM ATP, 30 °C

Chain of PpADK2 (A9RF27 entry or part of it): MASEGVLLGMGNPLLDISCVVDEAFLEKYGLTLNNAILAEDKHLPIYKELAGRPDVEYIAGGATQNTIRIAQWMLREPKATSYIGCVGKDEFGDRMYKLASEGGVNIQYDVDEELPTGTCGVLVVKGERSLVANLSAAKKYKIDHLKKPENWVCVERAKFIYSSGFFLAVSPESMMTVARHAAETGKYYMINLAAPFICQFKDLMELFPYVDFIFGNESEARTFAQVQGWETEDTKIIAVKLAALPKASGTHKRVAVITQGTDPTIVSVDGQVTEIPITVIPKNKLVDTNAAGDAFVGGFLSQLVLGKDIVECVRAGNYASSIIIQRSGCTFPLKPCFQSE

Structure (SMILES) | Specific activity (PpADK2) | Specific activity (ZmADK1) | Specific activity (ZmADK2 [1]; [5]) | Km (ZmADK2 [1]; ZmADK2, 10 mM ATP, 30 °C) | kcat (ZmADK2 [1]; ZmADK2, 10 mM ATP, 30 °C) | Specific activity (ZmADK3) | Specific activity (PpADK1 [2]) | Kd (ZmADK2 [3]; read-out: KD) | Kd (ZmADK2 [3]; KD) | other results
CN(C)c1ncnc2c1ncn2[C@@H]1O[C@H](CO)[C@@H](O)[C@H]1O [N ^6,N^6-DimethylAdo, 6-(dimethylamino)-9H-purine-9-β-D-riboside] | 0.86±0.03 nmol s^–1 mg^–1 | 3.0±0.3 nmol s^–1 mg^–1 | 3.2±0.0 nmol s^–1 mg^–1 | 11.2 ± 2.8 µM | 0.20±0.02 s^–1 | 5.1±0.4 nmol s^–1 mg^–1 | 0.91±0.02 nmol s^–1 mg^–1 | 12.3 ± 4.6 µM | – | –
Nc1ncnc2c1ccn2[C@@H]1O[C@H](CO)[C@@H](O)[C@H]1O [7-DeazaAdo, tubercidin] | – | – | – | 3.4 ± 0.4 µM | 0.17±0.01 s^–1 | – | – | – | 2.2 ± 0.7 µM | weaker affinity compared with Ado (ZmADK2 [3]; ratio of KD values): ~ 5.5 fold
CC(C)=CCNc1ncnc2c1ncn2C1OC(CO)C(O)C1O (centres unmarked) [iPR, N ^6-isopentenyl adenosine] | 0.83±0.08 nmol s^–1 mg^–1 | 2.8±0.3 nmol s^–1 mg^–1 | – | – | – | 5.1±0.3 nmol s^–1 mg^–1 | 0.93±0.11 nmol s^–1 mg^–1 | – | 4.8 ± 1.1 µM | Km (PpADK2): 4 ± 0.3 µM; kcat (PpADK2): 0.03±0.001 s^–1; Km (ZmADK1): 8.5 ± 0.7 µM; kcat (ZmADK1): 0.10±0.002 s^–1; Specific activity (ZmADK2 [1]): 4.1±0.4 nmol s^–1 mg^–1; kcat (ZmADK2 [1]): 0.19±0.01 s^–1; Km (ZmADK3): 4.3 ± 0.4 µM; kcat (ZmADK3): 0.22±0.007 s^–1; Kd (PpADK1 [4]): 5.5 µM; Km (all five ADKs): 4 to 12 µM; Km (rabbit ADK): 7 µM; activity compared with Ado (rabbit ADK): 69%
Nc1nc2c(ncn2[C@@H]2O[C@H](CO)[C@@H](O)[C@H]2O)c(=O)[nH]1 [Guanosine] | – | – | – | – | – | – | – | – | 217 ± 107 µM | –
CNc1ncnc2c1ncn2[C@@H]1O[C@H](CO)[C@@H](O)[C@H]1O [N ^6-MethylAdo, 6-methylamino-9H-purine-9-β-D-riboside] | 0.86±0.03 nmol s^–1 mg^–1 | 2.7±0.2 nmol s^–1 mg^–1 | 2.9±0.3 nmol s^–1 mg^–1 | 10.7 ± 1.5 µM | 0.24±0.02 s^–1 | 5.1±0.4 nmol s^–1 mg^–1 | 0.89±0.00 nmol s^–1 mg^–1 | 8.7 ± 2.5 µM | – | –
C/C(=C\CNc1ncnc2c1ncn2[C@@H]1O[C@H](CO)[C@@H](O)[C@H]1O)CO (relative stereo) [tZR, trans-zeatin riboside] | 0.83±0.08 nmol s^–1 mg^–1 | 2.7±0.3 nmol s^–1 mg^–1 | 3.8±0.4 nmol s^–1 mg^–1 | – | – | 2.7±0.4 nmol s^–1 mg^–1 | 0.74±0.06 nmol s^–1 mg^–1 | – | – | –
OC[C@H]1O[C@@H](n2cnc3c(O)ncnc32)[C@H](O)[C@@H]1O [Inosine] | – | – | – | – | – | – | – | – | 440 ± 180 µM | –
Nc1ccn([C@@H]2O[C@H](CO)[C@@H](O)[C@H]2O)c(=O)n1 [Cytidine] | – | – | – | – | – | – | – | – | 286 ± 10 µM | –
O=c1ccn([C@@H]2O[C@H](CO)[C@@H](O)[C@H]2O)c(=O)[nH]1 [Uridine] | – | – | – | > 1000 µM | 0.15±0.03 s^–1 | – | – | – | > 5000 µM | –
CC(C)Nc1ncnc2c1ncn2[C@@H]1O[C@H](CO)[C@@H](O)[C@H]1O [N ^6-IsopropylAdo] | 0.83±0.05 nmol s^–1 mg^–1 | 2.2±0.2 nmol s^–1 mg^–1 | 3.9±0.5 nmol s^–1 mg^–1 | 54.8 ± 5.8 µM | 0.19±0.01 s^–1 | 3.8±0.3 nmol s^–1 mg^–1 | 0.96±0.09 nmol s^–1 mg^–1 | 52.8 ± 13.9 µM | – | –
